ChEMBL document CHEMBL1201862, “PubChem BioAssay data set” (2004)
Active and inactive are the calls of the source.

How the values were obtained:
Protein RecA = molecular target: T1, Protein RecA (Mycobacterium tuberculosis, UniProt P9WHJ3); assay: Fluorescence Cell-Free Homogeneous Dose Retest to Identify Inhibitors of RecA-Intein Splicing Activity. [Related pubchem assays (depositor defined):AID2097, AID2223, AID489010, AID492950]; format: functional
T1 sequence (P9WHJ3 whole entry): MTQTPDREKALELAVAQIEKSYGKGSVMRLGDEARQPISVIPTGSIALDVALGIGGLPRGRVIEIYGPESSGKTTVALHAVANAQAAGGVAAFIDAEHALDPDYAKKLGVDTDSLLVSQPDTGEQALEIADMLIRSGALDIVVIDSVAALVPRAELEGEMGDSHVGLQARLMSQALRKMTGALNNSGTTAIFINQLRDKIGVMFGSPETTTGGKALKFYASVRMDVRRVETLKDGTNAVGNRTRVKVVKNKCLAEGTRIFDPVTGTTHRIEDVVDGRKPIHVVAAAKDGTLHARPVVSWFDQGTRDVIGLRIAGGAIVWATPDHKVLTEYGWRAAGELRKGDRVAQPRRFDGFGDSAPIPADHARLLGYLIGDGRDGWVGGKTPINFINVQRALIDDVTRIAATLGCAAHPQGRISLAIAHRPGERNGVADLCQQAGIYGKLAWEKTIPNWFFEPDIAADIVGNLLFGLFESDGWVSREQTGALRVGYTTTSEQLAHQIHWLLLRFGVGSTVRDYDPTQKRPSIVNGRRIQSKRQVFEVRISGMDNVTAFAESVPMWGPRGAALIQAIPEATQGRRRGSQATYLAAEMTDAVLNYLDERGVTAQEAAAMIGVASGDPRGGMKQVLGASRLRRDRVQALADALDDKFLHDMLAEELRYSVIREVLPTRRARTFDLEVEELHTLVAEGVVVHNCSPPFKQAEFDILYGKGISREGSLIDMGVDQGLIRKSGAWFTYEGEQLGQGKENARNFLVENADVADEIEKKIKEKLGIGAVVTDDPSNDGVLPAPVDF

[1] = Luminescence Cell-Based Dose Confirmation HTS to Identify Activators of 5'UTR Stem-Loop Driven Alpha-Synuclein mRNA Translation in H4 Neuroglioblastoma Cells. [Related pubchem assays: 1829 (Project Summary), 1814 (Primary HTS)]; format: functional
[2] = molecular target: Potassium voltage-gated channel subfamily KQT member 2 (Rattus norvegicus, UniProt O88943, W236L); assay: potentiation of rat KCNQ2 current – cell-based, automated electrophysiology, mechanism study for KCNQ2 potentiator project, dose response (AID 2603); format: functional
Chain of Potassium voltage-gated channel subfamily KQT member 2 (O88943 whole entry W236L): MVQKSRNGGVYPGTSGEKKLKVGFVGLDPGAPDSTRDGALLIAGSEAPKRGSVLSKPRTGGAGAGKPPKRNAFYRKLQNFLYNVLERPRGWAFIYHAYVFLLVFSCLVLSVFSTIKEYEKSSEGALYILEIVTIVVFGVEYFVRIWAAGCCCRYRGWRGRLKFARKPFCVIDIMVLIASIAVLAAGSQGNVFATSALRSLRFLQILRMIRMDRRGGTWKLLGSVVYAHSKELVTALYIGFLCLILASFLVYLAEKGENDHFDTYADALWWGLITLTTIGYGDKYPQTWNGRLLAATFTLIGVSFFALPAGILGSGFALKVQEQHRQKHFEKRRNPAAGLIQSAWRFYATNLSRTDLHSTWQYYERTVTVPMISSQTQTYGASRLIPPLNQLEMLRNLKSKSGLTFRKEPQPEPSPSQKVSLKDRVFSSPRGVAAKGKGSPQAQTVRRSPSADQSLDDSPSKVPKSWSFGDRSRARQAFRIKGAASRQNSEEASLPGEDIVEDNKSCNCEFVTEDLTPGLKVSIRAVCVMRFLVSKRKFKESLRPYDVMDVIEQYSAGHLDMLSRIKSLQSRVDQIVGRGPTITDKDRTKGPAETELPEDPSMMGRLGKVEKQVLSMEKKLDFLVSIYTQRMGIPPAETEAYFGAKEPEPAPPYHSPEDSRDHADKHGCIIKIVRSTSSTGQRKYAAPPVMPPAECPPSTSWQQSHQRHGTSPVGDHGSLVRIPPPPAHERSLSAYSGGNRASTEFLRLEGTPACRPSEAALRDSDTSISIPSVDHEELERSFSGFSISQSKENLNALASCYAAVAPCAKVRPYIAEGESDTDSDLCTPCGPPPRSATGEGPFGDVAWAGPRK

H4 = assay: Luminescence Cell-Based Dose Response HTS to Identify Activators of 5'UTR Stem-Loop Driven Prion Protein mRNA Translation in H4 Neuroglioblastoma Cells. [Related pubchem assays: 1829 (Project Summary), 1814 (Primary HTS)]; format: functional; settings: Homo sapiens
[3] = reduction of Shn3 3'UTR-driven luciferase in osteoblasts – cell-based, Clone20 osteoblasts, firefly luciferase, cherry-picked, dose response (AID 624132); format: functional;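 note: firefly luciferase luminescence from reporter carrying the Shn3 3'UTR in osteoblasts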
[4] = Luminescence Cell-Based Dose Response HTS to Identify Activators of Luciferase Translation or Activity in H4 […] Cells. [Related pubchem assays: 1829 (Project Summary), 1814 (Primary HTS)]; format: functional
Vero = assay: viability of Vero cells under compound – cytotoxicity control for flavivirus capping enzyme inhibitors (AID 588742); format: functional; settings: Chlorocebus sabaeus
[5] = non-specific 3'UTR reporter inhibition in Clone20-Shn3RL – cell-based, Renilla luciferase, cherry-picked, counter-screen for Shn3 inhibitor project, dose response (AID 624133); format: functional
[6] = molecular target: T2, Replicative DNA helicase DnaB (Mycobacterium tuberculosis, UniProt P9WMR3); assay: DnaB intein splicing inhibitors, dose response, biochemical, cell-free fluorescence (AID 449749); format: functional
T2 sequence (P9WMR3 whole entry): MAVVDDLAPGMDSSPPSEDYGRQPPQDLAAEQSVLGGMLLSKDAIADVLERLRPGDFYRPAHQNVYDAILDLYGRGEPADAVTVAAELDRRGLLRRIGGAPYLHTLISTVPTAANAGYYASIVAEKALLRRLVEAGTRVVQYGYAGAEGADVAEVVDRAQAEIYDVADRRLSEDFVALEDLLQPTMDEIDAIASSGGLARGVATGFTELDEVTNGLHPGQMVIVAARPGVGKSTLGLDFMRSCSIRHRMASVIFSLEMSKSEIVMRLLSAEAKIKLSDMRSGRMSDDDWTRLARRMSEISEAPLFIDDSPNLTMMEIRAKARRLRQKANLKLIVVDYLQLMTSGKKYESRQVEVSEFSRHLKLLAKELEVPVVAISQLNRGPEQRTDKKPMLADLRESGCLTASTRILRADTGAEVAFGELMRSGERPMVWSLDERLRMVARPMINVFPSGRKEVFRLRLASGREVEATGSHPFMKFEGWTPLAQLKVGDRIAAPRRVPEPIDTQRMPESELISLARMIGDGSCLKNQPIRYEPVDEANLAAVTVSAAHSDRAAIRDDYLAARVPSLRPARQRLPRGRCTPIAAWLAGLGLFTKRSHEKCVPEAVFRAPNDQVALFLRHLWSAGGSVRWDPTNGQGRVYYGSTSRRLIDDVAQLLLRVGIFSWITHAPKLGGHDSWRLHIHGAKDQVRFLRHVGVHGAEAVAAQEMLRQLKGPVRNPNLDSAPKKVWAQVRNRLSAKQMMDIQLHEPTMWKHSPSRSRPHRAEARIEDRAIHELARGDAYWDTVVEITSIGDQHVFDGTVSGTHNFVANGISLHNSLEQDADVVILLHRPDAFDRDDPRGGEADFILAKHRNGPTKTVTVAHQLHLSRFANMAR

[7] = molecular target: T3, High affinity choline transporter 1 (Homo sapiens, UniProt Q9GZV3); assay: human choline transporter blockers, potency – cell-based, 10-point CRC, membrane potential dye, dose response (AID 588401); format: functional;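 note: membrane potential dye fluorescence of choline-evoked depolarization via CHT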
T3 sequence (Q9GZV3 whole entry): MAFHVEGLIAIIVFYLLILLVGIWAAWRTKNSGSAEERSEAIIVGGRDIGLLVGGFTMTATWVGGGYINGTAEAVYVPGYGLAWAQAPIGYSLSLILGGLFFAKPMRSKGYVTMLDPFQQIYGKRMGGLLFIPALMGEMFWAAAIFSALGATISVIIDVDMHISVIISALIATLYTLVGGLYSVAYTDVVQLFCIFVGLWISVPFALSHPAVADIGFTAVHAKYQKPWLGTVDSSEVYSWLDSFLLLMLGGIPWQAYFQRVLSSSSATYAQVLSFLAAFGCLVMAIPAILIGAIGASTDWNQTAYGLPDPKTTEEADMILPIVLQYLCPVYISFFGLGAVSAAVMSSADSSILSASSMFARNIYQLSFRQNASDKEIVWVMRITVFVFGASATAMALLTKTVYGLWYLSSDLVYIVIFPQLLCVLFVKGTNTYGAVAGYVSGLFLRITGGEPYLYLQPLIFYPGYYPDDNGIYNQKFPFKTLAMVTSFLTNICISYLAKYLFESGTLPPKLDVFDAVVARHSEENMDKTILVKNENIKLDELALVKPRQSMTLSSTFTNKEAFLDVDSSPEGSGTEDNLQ

[8] = molecular target: T3, High affinity choline transporter 1; assay: human choline transporter blockers, potency – cell-based, 5-point CRC, membrane potential dye, dose response (AID 504840); format: functional
[9] = molecular target: Hepatocyte nuclear factor 4-alpha (Homo sapiens, UniProt P41235); format: functional, cell-based;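 note: biochemical luminescence-based dose-response counterscreen measuring inhibition of HNF4 dimerization, run alongside a screen for blockers of ABHD5–perilipin-5 interaction; split luciferase complementation of HNF4 fusion proteins in cell lysate measuring dimerization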
Chain of Hepatocyte nuclear factor 4-alpha (P41235 whole entry, the tested form may be a part): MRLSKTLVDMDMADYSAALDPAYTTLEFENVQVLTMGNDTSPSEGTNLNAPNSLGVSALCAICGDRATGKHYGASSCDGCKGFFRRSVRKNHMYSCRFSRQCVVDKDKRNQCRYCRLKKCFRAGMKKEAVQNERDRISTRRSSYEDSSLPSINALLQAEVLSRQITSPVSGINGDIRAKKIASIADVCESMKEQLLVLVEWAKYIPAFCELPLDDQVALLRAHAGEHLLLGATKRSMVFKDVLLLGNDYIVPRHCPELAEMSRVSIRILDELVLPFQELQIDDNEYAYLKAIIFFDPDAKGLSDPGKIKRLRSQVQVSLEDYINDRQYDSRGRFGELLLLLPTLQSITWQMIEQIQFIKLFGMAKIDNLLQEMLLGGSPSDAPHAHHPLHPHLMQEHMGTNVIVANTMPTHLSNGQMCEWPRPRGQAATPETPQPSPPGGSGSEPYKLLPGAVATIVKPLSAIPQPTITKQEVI

Genome polyprotein = Genome polyprotein (dengue virus type 2, UniProt P29990); assay: flavivirus cap methylation enzyme inhibition – biochemical, confirmation dose response, primary screen (AID 588689); format: functional
Chain of Genome polyprotein (P29990 2492-3391 limits assumed): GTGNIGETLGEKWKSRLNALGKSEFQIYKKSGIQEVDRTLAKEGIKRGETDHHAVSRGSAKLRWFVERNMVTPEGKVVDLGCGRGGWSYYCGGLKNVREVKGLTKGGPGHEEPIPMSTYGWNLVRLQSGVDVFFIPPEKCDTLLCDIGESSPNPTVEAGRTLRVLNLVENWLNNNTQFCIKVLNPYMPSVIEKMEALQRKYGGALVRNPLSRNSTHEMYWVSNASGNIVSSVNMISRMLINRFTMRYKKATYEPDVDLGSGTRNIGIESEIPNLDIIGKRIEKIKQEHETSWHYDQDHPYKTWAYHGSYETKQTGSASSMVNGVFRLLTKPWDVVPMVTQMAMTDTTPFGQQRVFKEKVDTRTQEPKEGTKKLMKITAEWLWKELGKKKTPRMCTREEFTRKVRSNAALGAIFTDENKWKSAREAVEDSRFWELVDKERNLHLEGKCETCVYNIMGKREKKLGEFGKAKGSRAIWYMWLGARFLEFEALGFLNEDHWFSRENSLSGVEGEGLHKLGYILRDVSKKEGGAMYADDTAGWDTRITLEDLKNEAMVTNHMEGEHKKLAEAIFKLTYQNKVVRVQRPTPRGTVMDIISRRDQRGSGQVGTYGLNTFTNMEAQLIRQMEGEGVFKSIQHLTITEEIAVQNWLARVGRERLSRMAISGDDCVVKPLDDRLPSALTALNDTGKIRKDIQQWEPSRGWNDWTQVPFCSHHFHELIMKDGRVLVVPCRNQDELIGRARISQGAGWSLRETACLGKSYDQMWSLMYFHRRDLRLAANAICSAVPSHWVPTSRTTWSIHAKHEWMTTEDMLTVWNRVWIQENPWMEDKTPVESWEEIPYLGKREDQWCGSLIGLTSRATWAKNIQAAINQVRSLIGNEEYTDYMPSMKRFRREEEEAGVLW

[10] = molecular target: T4, Sphingosine 1-phosphate receptor 2 (Homo sapiens, UniProt O95136); assay: Dose Response Cell Based Assay for Agonists of the S1P2 Receptor of Purchased Analogues. [Related pubchem assays: 729, 843, 854, 736 ]; format: functional
T4 sequence (O95136 whole entry): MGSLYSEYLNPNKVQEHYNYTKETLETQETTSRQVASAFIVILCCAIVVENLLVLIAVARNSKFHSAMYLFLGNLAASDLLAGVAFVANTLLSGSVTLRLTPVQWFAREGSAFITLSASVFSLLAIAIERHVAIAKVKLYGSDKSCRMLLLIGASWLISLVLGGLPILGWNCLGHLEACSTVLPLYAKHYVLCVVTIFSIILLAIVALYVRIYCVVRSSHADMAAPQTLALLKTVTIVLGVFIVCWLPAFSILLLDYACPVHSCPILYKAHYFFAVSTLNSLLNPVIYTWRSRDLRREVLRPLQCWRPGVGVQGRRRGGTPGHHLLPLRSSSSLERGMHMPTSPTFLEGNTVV

Streptococcus = assay: GAS bacterial viability reduction – luminescence, BacTiter-Glo, strain UMAA2166, counter-screen for streptokinase expression inhibitor project, dose response (AID 2477); format: functional, organism-based
Streptokinase A = molecular target: T5, Streptokinase A (Streptococcus pyogenes serotype M1, UniProt P10520); assay: Absorbance Microorganism-Based Dose Response Follow up to Identify Inhibitors of Streptokinase Expression. [Related pubchem assays: 1677 (Project Summary), 1915, 1914, 1902 (Retest at Dose), 1900 (Counter Screen), 1662 (Primary HTS)]; format: functional, Streptococcus pyogenes M1 GAS
T5 sequence (P10520 whole entry): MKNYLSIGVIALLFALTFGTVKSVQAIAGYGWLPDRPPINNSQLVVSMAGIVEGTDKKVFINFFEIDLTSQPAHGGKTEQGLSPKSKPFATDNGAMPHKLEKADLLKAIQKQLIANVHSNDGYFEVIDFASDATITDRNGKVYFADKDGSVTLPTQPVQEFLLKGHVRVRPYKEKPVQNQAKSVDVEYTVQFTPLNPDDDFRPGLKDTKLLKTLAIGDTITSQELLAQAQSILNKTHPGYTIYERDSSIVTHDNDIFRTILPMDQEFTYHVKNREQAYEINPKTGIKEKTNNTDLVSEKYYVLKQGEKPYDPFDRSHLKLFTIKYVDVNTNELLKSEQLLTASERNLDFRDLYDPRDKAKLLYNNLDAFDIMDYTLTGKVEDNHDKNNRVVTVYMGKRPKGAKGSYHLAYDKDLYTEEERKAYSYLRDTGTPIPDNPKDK

BJ [11] = assay: cells; format: functional, cell-based; settings: Homo sapiens
[12] = DRD fibroblast viability loss – cell-based, non-viral oncogenic, luminescence, dose response (AID 1934); format: functional; settings: Homo sapiens
BJ [13] = assay: growth inhibition of engineered Ras-driven BJ cells – cell-based, alamar blue fluorescence, cherrypicked samples, dose response (AID 2631); format: functional; settings: Homo sapiens;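 note: confirmatory dose-response assay in RAS-dependent BJ fibroblasts engineered with TERT, LT and ST, with cytotoxicity read by fluorescence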
cells = format: functional
[14] = molecular target: T4, Sphingosine 1-phosphate receptor 2; assay: Dose Response Cell Based Assay for Antagonists of the S1P2 Receptor. [Related pubchem assays: 856, 736 ]; format: functional
Nonstructural protein 1 = Nonstructural protein 1 (Influenza A virus, UniProt Q194T2); format: functional, Influenza A virus (A/California/07/2009(H1N1))
Chain of Nonstructural protein 1 (Q194T2 whole entry): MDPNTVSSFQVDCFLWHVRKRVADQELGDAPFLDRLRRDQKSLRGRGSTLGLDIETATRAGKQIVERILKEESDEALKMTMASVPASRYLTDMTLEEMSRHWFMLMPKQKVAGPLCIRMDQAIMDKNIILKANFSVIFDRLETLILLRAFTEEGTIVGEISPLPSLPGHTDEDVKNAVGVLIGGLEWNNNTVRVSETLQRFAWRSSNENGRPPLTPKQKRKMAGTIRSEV

[15] = THP-1 cell cytotoxicity, dose response, cytotoxicity control for non-replicating M. tuberculosis project (AID 489025); format: functional
BJ [16] = assay: BJ-TERT fibroblast viability loss – cell-based, RAS-independent, luminescence, dose response (AID 1933); format: functional; settings: Homo sapiens
[17] = Vero E6 cell cytotoxicity, dose response, cytotoxicity control for non-replicating M. tuberculosis project, secondary assay (AID 492998); format: functional, VeroE6; settings: Vero C1008
BJ [18] = assay: BJ-TERT-LT-ST fibroblast viability loss – cell-based, RAS-independent, luminescence, dose response (AID 1935); format: functional; settings: Homo sapiens;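 note: BJ fibroblasts immortalized with TERT plus LT and ST oncogenes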
INS1 = assay: INS-1E survival protection against cytokine death – cell-based, luminescence, retest, dose response (AID 449756); format: functional; settings: Rattus norvegicus;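 note: cell death triggered by IL-1 beta plus TNF-alpha plus IFN-gamma mixture; protective hits raise ATP signal compared with cytokine alone wells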
[19] = molecular target: T6, Mannose-6-phosphate isomerase (Homo sapiens, UniProt P34949); assay: MPI enzyme activity inhibition – biochemical, fluorescence intensity, coupled assay, primary screen (AID 1209)
T6 sequence (P34949 whole entry): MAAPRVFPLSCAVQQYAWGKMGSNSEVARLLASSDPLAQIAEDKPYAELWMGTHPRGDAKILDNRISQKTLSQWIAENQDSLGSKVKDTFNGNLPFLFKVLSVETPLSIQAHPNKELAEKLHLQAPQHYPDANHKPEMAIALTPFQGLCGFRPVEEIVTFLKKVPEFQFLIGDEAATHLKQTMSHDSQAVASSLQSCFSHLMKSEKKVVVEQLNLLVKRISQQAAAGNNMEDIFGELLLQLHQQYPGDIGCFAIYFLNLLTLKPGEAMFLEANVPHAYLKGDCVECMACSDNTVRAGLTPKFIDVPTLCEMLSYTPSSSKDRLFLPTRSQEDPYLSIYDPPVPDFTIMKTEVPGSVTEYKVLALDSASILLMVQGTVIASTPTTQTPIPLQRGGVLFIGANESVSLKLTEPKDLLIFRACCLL

For `CCc1nnc(NC(=O)c2nc(S(=O)(=O)Cc3cccc(C)c3)ncc2Cl)s1`, the EC50 (Protein RecA) was 4.37 µM (active), the EC50 [1] was > 120 µM (not active) and the EC50 [2] was 16.8 µM (active). The EC50 (H4) was > 120 µM (not active), the AC50 [3] was 2.51 µM (active) and the EC50 [4] was > 120 µM (not active). For the same compound, the CC50 (Vero) was 26.6 µM (active), the AC50 [5] was 6.99 µM (active) and the AC50 [6] was 5.05 µM (active). The IC50 [7] was 2.82 µM (active), the IC50 [8] was 2.4 µM (active) and the IC50 [9] was 5.05 µM (active). For the same compound, the IC50 (Genome polyprotein) was > 100 µM (active).
With `Cc1cc(C(=O)CN(C)CC(=O)N(C)C)c(C)n1Cc1ccccc1` the EC50 [10] was > 30 µM (not active).
With `COc1cccc(-c2nc(OC(C)C)c3ccccc3n2)c1` the EC50 (Streptococcus) was 68.7 µM (active) and the EC50 (Streptokinase A) was 8.2 µM (active).
In the case of `CC1=C(C)/C(=N\OS(=O)(=O)c2ccccc2)C=CC1=O`, the EC50 (Protein RecA) is reported as 7.72 µM (active), the EC50 (BJ [11]) is reported as 2.92 µM (active) and the EC50 [12] is reported as 4.57 µM (active). For the same compound, the EC50 [1] was > 120 µM (not active), the EC50 (H4) was > 120 µM (not active) and the EC50 (BJ [13]) was 557 nM (inconclusive). The IC50 (cells) was 11.4 µM (active), the IC50 [14] was 4.33 µM (active) and the IC50 (Nonstructural protein 1) was > 100 µM (active). The CC50 [15] was 12.1 µM (active), the EC50 (BJ [16]) was 2.78 µM (inconclusive) and the EC50 [4] was > 120 µM (not active). The CC50 [17] was > 20 µM (active), the EC50 (BJ [18]) was 4.32 µM (inconclusive) and the AC50 [6] was 87.4 µM (active). For the same compound, the AC50 (INS1) was 1.92 µM (active) and the IC50 [19] was 6.61 µM (active).
